This is an account of results in ChEMBL document CHEMBL3351233, “Design, stereoselective synthesis, configurational stability and biological activity of 7-chloro-9-(furan-3-yl)-2,3,3a,4-tetrahydro-1H-benzo[e]pyrrolo[2,1-c][1,2,4]thiadiazine 5,5-dioxide” (Bioorg Med Chem, 2014).

For data set [1], the species on record is Rattus norvegicus. Briefly: Positive allosteric modulator activity at AMPA receptor in 7 days old Sprague-Dawley rat cerebellar granule neurons assessed as potentiation of kainite-evoked current at 10 uM by whole cell patch clamp technique. A general note: The patch-clamp technique gives a direct electrical read-out from membranes.
Data set [2] is described as follows: Chemical stability of the compound in water/acetonitrile mobile phase by chromatography. Type of data set: physicochemical. Particulars: buffer.
Data set [3] is filed under the species Rattus norvegicus. In words: Positive allosteric modulator activity at AMPA receptor in 7 days old Sprague-Dawley rat cerebellar granule neurons assessed as potentiation of 5-Will-evoked current at 10 uM by whole cell patch clamp technique.

On to `O=S1(=O)NC2CCCN2c2c(-c3ccoc3)cc(Cl)cc21` (racemic), for which the Activity in the data set listed under Rattus norvegicus [1] was 30%. Besides, the Stability result in data set [2] was “Stable”.
Regarding `O=S1(=O)N[C@@H]2CCCN2c2c(-c3ccoc3)cc(Cl)cc21`, the Activity in the data set filed under Rattus norvegicus [1] stood at 74%; in the data set filed under Rattus norvegicus [3], 245%.
Regarding `O=S1(=O)N[C@H]2CCCN2c2c(-c3ccoc3)cc(Cl)cc21`, the Activity in the data set listed under Rattus norvegicus [1] is 12%; in the data set filed under Rattus norvegicus [3], 122%.
As for `CC1Nc2ccc(Cl)cc2S(=O)(=O)N1` (stereo not drawn), the Activity in the data set listed under Rattus norvegicus [1] amounted to 8%; in the data set listed under Rattus norvegicus [3], 10%.
